Experimental data taken from article PMC5218887 (Neurochemistry International, 2017).
“Also recorded” adds a separate entry of the source. Non-standard residues stand in square brackets, D forms with d. Primed or numbered codes have the meaning given here. No end group written: not given here. pS′ = not defined here

Experiments:
human GPR139 [1] = molecular target: T1, human GPR139 (Homo sapiens, UniProt Q6DWJ6); test: Fluo-4 Ca2+-assay, agonist testing on CHO-GPR139; assay type: cell-based; details: for agonist activity on GPR139: CHO-GPR139, result in words; for relative Emax ± SEM: compared to Emax of cmp1a
T1 sequence (Q6DWJ6 1-353): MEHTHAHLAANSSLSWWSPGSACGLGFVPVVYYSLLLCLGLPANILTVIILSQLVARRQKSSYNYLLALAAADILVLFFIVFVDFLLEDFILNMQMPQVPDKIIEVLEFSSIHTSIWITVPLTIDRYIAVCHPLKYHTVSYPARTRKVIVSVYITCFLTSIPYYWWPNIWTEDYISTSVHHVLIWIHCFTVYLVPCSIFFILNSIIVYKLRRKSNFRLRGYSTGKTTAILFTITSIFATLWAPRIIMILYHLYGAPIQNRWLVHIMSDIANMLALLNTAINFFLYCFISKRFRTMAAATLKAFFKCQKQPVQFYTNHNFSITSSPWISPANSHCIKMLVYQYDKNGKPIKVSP

human GPR139 [2] = molecular target: T1, human GPR139; test: Fluo-4 Ca2+-assay, antagonist testing against EC80; assay type: cell-based; details: against EC80 (800 nM) of cmp1a; data not shown
GPR139 [3] = details: read-out: EC50 on GPR139; ref Isberg et al., 2014; cited from earlier work
[4] = molecular target: T2, human muscarinic acetylcholine receptor M1 (Homo sapiens, UniProt P11229); test: Fluo-4 Ca2+-assay on CHO-M1; assay type: cell-based; details: CHO-M1, specificity test; data not shown
T2 sequence (P11229 1-460): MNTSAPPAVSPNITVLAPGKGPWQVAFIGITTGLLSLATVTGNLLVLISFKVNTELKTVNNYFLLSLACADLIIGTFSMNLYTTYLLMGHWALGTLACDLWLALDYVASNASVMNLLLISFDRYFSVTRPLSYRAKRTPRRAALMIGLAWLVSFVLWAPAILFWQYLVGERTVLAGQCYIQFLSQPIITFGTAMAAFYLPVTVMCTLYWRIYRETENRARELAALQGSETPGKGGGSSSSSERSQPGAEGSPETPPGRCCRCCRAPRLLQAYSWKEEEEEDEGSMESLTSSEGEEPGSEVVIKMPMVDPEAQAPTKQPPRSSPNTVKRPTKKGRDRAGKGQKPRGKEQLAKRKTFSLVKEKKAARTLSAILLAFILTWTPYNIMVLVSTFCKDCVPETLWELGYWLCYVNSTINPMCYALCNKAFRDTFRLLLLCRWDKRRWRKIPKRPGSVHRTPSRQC

GPR139 [5] = details: rats; ref Liu et al., 2015; cited from earlier work
MC4R = MC4R (Homo sapiens, UniProt P32245); test: cAMP accumulation assay; assay type: cell-based; details: tested in the highest concentration; normalized to Emax of α-MSH
Chain of MC4R (P32245 whole entry, species assumed): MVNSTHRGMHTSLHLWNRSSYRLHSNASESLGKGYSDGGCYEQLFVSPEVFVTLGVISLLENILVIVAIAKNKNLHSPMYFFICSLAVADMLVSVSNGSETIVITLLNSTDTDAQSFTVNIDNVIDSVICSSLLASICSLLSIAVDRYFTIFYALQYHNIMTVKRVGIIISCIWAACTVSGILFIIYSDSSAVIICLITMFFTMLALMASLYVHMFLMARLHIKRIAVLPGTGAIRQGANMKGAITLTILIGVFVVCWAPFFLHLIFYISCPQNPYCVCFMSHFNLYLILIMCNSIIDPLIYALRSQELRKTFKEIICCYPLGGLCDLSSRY

Row | Compound | agonist activity on GPR139 (human GPR139 [1]) | antagonist activity on GPR139 (human GPR139 [2]) | further results
1 | γ1-melanocyte stimulating hormone [γ1-MSH] | No agonist or antagonist activity; also recorded: did not show any activity | No agonist or antagonist activity | –
2 | N[C@@H](Cc1c[nH]c2ccccc12)C(=O)O [L-Trp, L-tryptophan] | – | – | EC50 (GPR139 [3]): 220 µM
3 | MEHFRWG [α-MSH4-10] | – | – | relative Emax ± SEM (human GPR139 [1]; at 101 μM (highest concentration tested, no plateau)): 13 ± 2 (at 101 μM) %
4 | CSCC[C@H](NC(=O)[C@H](CCCNC(=N)N)NC(=O)[C@H](Cc1ccc(O)cc1)NC(=O)[C@@H]1CCCN1C(=O)CNC(=O)[C@H](CCC(=O)O)NC(=O)[C@H](CC(=O)O)NC(=O)[C@H](CCCCN)NC(=O)[C@H](CCCCN)NC(=O)[C@H](CCC(=O)O)NC(=O)[C@H](C)N)C(=O)N[C@@H](CCC(=O)O)C(=O)N[C@@H](Cc1c[nH]cn1)C(=O)N[C@@H](Cc1ccccc1)C(=O)N[C@@H](CCCNC(=N)N)C(=O)N[C@@H](Cc1c[nH]c2ccccc12)C(=O)NCC(=O)N[C@@H](CO)C(=O)N1CCC[C@H]1C(=O)N1CCC[C@H]1C(=O)N[C@@H](CCCCN)C(=O)N[C@@H](CC(=O)O)C(=O)O [β-MSH] | showed agonist activity | – | fold more potent on GPR139 than L-Trp and L-Phe (human GPR139 [1]; compared with L-Trp (EC50 = 220 μM) and L-Phe (EC50 = 320 μM)): 20–120 fold; Emax (human GPR139 [1]; read-out: relative Emax ± SEM): 101 ± 11%; activity on the muscarinic acetylcholine M1 receptor [4]: none of these peptides showed any activity
5 | 26RFa | No agonist or antagonist activity | No agonist or antagonist activity | –
6 | SY[pSer]SMEHFRWGKPVGKK (SY[pS′]SMEHFRWGKPVGKK) [ACTH1-16,P-Ser] | neither of the two peptides showed any agonist or antagonist activity | neither of the two peptides showed any agonist or antagonist activity | –
7 | oxytocin | No agonist or antagonist activity | No agonist or antagonist activity | –
8 | CSCC[C@H](NC(=O)[C@H](CO)NC(=O)[C@H](Cc1ccc(O)cc1)NC(=O)[C@H](CO)NC(C)=O)C(=O)N[C@@H](CCC(=O)O)C(=O)N[C@@H](Cc1c[nH]cn1)C(=O)N[C@@H](Cc1ccccc1)C(=O)N[C@@H](CCCNC(=N)N)C(=O)N[C@@H](Cc1c[nH]c2ccccc12)C(=O)NCC(N)=O [cap-α-MSH1-10] | – | – | Emax at 14 µM (human GPR139 [1]; read-out: relative Emax ± SEM): 31 ± 4%
9 | N=C(N)NCCC[C@H](NC(=O)[C@H](Cc1ccccc1)NC(=O)[C@@H](N)Cc1c[nH]cn1)C(=O)N[C@@H](Cc1c[nH]c2ccccc12)C(=O)O [HFRW] | – | – | Emax (human GPR139 [1]; read-out: relative Emax ± SEM): 64 ± 6%
10 | melanin-concentrating hormone [MCH] | No agonist or antagonist activity | No agonist or antagonist activity | –
11 | [Arg^8]-vasopressin | No agonist or antagonist activity | No agonist or antagonist activity | –
12 | C[C@H](NC(=O)CNC(=O)c1cccc(Cl)c1)c1ccccc1 [JNJ-63533054] | – | – | spontaneous locomotion activity (GPR139 [5]): decreased spontaneous locomotion activity
13 | SY[pSer]SMEHFRWGKPV-NH2 (N-terminal SY[pSer]; C-terminal amide) [α-MSHP-Ser] | neither of the two peptides showed any agonist or antagonist activity | neither of the two peptides showed any agonist or antagonist activity | –
14 | Ac-SYSMEHFRW-NH2 [cap-α-MSH1-9] | – | – | Emax at 61 µM (human GPR139 [1]; read-out: relative Emax ± SEM): 53 ± 9%; response of α-MSH on MC4R (MC4R): 50%
15 | COc1cc(OC)cc(C(=O)NNC(=O)Nc2cccc3ccccc23)c1 [compound 1a, 2-(3,5-dimethoxybenzoyl)-N-(naphthalen-1-yl)hydrazine-1-carboxamide] | – | – | EC80 on GPR139 (human GPR139 [1]; concentration used for antagonist testing): 0.8 µM
16 | cap-α-MSH4-10: α-MSH4-10 (MEHFRWG), N-terminal acetylated and C-terminal amidated | – | – | relative Emax ± SEM (human GPR139 [1]; at 16 μM (highest concentration tested, no plateau)): 21 ± 8 (at 16 μM) %
17 | thyrotropin releasing hormone [TRH] | No agonist or antagonist activity | No agonist or antagonist activity | –
18 | N[C@@H](Cc1ccccc1)C(=O)O [L-Phe, L-phenylalanine] | – | – | EC50 (GPR139 [3]): 320 µM
